Experimental data taken from ChEMBL document CHEMBL1158459, “Discovery of a peroxisome proliferator activated receptor gamma (PPARgamma) modulator with balanced PPARalpha activity for the treatment of type 2 diabetes and dyslipidemia” (J Med Chem, 2009).
Calls of active or inactive are those of the source. No cut-off for these calls is given here.

Columns and labels:
Syrian golden hamster [1] = experiment: Antidiabetic activity in Syrian golden hamster assessed as reduction in cholesterol level at 0.3 mg/kg, po once daily for 9 days relative to control; format: functional, Mesocricetus auratus; set-up: scale not given: the % may be the effect or the level left
Rattus norvegicus [2] = experiment: Antidiabetic activity in Zucker fa/fa rat assessed as decrease in triglyceride levels at 10 mg/kg, po once daily for 7 days; format: functional, organism-based; set-up: dose 10 mg/kg
Rattus norvegicus [3] = experiment: Toxicity in Zucker fa/fa rat assessed as increase in plasma volume at 10 mg/kg, po treated once daily for 7 days; conditions: in vivo, 168 h
Syrian golden hamster [4] = experiment: Antidiabetic activity in Syrian golden hamster assessed as reduction in triglyceride level at 0.3 mg/kg, po once daily for 9 days relative to control; format: functional, Mesocricetus auratus; set-up: scale not given: the % may be the effect or the level left
Syrian golden hamster [5] = experiment: Antidiabetic activity in Syrian golden hamster assessed as reduction in cholesterol level at 1 mg/kg, po once daily for 9 days relative to control; format: functional, Mesocricetus auratus; set-up: scale not given: the % may be the effect or the level left
[6] = molecular target: Peroxisome proliferator-activated receptor alpha (Canis lupus familiaris, UniProt Q95N78); experiment: Agonist activity at dog PPARalpha receptor; format: functional
Peroxisome proliferator-activated receptor alpha (Canis lupus familiaris, UniProt Q95N78), sequence (Q95N78 whole entry): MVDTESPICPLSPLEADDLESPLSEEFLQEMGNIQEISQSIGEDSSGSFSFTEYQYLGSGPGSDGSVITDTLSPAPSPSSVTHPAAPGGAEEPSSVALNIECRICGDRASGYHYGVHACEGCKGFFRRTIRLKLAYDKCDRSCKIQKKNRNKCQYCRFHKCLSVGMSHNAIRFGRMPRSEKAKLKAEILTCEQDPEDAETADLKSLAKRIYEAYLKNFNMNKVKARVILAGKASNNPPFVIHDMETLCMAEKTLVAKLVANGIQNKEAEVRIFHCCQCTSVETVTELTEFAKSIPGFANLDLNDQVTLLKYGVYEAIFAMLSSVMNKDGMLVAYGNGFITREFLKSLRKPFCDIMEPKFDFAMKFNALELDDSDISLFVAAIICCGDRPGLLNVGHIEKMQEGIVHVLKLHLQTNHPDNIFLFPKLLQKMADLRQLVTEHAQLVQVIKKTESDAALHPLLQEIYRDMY

[7] = AUC in high fat diet-fed streptozotocin-treated mouse at 5 mg/kg, po once daily for 12 days; format: ADME, organism-based; set-up: dose 5 mg/kg, route oral; conditions: plasma
[8] = molecular target: T1, Peroxisome proliferator-activated receptor alpha (Homo sapiens, UniProt Q07869); format: functional, cell-based, COS-1
T1 sequence (Q07869 whole entry): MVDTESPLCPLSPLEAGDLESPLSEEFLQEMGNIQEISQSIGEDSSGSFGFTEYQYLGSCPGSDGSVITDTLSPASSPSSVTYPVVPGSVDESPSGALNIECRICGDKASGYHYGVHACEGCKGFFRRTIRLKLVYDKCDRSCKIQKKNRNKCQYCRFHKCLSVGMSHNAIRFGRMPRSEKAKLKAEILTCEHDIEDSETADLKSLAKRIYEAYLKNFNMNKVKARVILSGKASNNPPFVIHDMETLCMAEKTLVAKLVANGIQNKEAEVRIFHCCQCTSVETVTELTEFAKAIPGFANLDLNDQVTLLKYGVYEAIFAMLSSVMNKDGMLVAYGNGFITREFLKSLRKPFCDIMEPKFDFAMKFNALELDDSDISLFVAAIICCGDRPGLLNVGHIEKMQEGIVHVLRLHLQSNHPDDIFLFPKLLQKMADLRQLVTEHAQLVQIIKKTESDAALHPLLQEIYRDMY
Description: Agonist activity at human PPARalpha receptor expressed in african green monkey COS1 cells co-transfected with fused yeast Gal4-DBD by transactivation assay

[9] = AUC in rat at 2 mg/kg, po; format: ADME, organism-based, Plasma; set-up: dose 2 mg/kg, route oral; conditions: plasma
[10] = molecular target: Oxysterols receptor LXR-beta (Homo sapiens) (UniProt P55055); experiment: Binding affinity to LXRbeta up to 10 uM
Oxysterols receptor LXR-beta (Homo sapiens), sequence (P55055 whole entry): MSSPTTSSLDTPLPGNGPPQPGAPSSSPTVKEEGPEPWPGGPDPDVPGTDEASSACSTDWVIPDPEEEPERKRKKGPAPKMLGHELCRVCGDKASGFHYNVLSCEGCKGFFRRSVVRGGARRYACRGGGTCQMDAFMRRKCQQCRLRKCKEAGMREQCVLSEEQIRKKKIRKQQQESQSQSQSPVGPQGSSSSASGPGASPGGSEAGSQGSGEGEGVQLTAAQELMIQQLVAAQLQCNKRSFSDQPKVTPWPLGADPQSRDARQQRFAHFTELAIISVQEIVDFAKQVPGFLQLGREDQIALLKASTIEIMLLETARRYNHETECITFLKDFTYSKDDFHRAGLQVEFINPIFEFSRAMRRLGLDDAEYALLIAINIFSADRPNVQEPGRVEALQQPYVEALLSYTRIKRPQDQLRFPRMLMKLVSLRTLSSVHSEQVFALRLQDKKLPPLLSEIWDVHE

Cytochrome P450 1A2 = Cytochrome P450 1A2 (Homo sapiens, UniProt P05177); experiment: Inhibition of CYP1A2; format: ADME
Cytochrome P450 1A2, sequence (P05177 whole entry): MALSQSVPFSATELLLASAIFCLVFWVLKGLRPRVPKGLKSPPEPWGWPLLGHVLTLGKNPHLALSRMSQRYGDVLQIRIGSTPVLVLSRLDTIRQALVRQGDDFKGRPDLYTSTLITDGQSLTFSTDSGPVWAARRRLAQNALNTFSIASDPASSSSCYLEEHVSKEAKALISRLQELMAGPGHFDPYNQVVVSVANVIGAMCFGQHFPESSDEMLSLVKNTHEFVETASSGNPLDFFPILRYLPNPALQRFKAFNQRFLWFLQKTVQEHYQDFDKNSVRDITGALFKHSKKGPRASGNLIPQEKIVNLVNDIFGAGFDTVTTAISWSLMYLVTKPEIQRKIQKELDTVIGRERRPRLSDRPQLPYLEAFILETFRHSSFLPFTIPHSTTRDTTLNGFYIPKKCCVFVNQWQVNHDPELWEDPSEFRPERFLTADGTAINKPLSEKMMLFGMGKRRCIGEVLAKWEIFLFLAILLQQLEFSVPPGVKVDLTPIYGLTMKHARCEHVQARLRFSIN

Cytochrome P450 2C19 = Cytochrome P450 2C19 (Homo sapiens, UniProt P33261); experiment: Inhibition of CYP2C19; format: ADME
Cytochrome P450 2C19, sequence (P33261 whole entry): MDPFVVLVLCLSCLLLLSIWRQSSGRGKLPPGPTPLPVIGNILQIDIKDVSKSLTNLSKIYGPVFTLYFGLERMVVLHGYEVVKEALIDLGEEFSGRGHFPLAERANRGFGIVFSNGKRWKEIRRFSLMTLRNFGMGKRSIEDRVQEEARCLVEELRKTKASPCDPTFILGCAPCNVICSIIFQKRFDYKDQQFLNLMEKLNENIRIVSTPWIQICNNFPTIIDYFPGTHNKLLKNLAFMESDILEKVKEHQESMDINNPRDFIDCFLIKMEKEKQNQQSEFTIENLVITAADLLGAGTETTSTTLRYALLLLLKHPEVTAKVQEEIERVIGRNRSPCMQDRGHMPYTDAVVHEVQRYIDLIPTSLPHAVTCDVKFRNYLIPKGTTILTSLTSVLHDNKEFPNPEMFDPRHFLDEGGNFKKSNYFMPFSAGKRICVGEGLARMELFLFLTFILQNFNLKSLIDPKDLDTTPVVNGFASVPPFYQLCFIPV

[11] = Cmax in Syrian golden hamster at 1 mg/kg, po once daily for 9 days; format: ADME, organism-based, Mesocricetus auratus; set-up: dose 1 mg/kg, route oral; conditions: in vivo
Mus musculus [12] = experiment: Antidiabetic activity in ob/ob mouse assessed as reduction in plasma triglyceride levels at 3 mg/kg, po once daily for 5 days relative to control; format: functional; set-up: scale not given: the % may be the effect or the level left
[13] = molecular target: T2, Nuclear receptor subfamily 1 group I member 2 (Homo sapiens, UniProt O75469); experiment: Binding affinity to PXR up to 10 uM
T2 sequence (O75469 whole entry): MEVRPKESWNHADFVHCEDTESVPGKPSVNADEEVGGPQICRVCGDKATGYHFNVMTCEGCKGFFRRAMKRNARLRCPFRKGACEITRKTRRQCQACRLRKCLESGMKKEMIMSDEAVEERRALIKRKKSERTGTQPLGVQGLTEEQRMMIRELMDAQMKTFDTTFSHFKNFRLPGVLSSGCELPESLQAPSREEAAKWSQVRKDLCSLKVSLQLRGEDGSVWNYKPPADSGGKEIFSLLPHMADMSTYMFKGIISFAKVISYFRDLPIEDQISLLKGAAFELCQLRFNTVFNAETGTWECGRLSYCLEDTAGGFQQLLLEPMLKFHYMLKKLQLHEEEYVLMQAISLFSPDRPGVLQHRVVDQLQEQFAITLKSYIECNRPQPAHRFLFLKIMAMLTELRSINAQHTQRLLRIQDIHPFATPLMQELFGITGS

Rattus norvegicus [14] = experiment: Antidiabetic activity in Zucker fa/fa rat assessed as decrease in free fatty acid levels at 3 mg/kg, po once daily for 7 days; format: functional, organism-based; set-up: dose 3 mg/kg
Cytochrome P450 2D6 = Cytochrome P450 2D6 (Homo sapiens, UniProt P10635); experiment: Inhibition of CYP2D6; format: ADME
Cytochrome P450 2D6, sequence (P10635 whole entry): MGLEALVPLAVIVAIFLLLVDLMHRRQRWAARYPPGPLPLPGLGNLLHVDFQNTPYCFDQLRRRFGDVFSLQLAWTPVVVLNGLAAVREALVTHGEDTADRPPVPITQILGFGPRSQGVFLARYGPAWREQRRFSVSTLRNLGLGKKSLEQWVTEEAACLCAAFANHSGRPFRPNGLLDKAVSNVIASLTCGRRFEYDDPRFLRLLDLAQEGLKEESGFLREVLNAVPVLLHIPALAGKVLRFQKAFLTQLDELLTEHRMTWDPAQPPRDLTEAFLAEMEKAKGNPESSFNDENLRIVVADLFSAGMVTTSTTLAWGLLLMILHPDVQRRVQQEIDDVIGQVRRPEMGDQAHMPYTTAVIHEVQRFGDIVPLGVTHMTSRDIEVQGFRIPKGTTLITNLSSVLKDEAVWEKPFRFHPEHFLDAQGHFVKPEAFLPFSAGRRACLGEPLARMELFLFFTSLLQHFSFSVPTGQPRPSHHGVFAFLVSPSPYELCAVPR

[15] = AUC in high fat diet-fed streptozotocin-treated mouse at 30 mg/kg, po once daily for 12 days; format: ADME, organism-based; set-up: dose 30 mg/kg, route oral; conditions: plasma
Rattus norvegicus [16] = experiment: Antidiabetic activity in Zucker fa/fa rat assessed as decrease in free fatty acid levels at 0.3 mg/kg, po once daily for 7 days; format: functional, organism-based; set-up: dose 0.3 mg/kg
Cytochrome P450 2C9 = Cytochrome P450 2C9 (Homo sapiens, UniProt P11712); experiment: Inhibition of CYP2C9; format: ADME
Cytochrome P450 2C9, sequence (P11712 whole entry): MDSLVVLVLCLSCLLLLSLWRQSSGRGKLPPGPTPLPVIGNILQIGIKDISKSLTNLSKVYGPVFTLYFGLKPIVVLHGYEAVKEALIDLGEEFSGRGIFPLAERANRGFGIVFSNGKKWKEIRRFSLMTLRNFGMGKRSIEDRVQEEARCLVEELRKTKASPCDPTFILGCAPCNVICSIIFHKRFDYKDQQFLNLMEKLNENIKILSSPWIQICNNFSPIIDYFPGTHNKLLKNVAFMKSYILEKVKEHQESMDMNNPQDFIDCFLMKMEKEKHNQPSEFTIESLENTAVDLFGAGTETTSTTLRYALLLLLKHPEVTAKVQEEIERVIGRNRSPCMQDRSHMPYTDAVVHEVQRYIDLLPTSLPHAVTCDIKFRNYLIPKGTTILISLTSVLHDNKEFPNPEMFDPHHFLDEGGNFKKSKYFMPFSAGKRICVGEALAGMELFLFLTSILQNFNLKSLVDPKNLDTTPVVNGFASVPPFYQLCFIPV

Mus musculus [17] = experiment: Antidiabetic activity in high fat diet-fed streptozotocin-treated mouse assessed as reduction in plasma glucose levels at 5 mg/kg, po once daily for 12 days relative to control; format: functional; set-up: scale not given: the % may be the effect or the level left
Mus musculus [18] = experiment: Antidiabetic activity in ob/ob mouse assessed as reduction in plasma glucose levels at 3 mg/kg, po once daily for 5 days relative to control; format: functional; set-up: scale not given: the % may be the effect or the level left
[19] = Agonist activity at hamster PPARalpha receptor; format: functional, Cricetinae
[20] = molecular target: Estrogen receptor (Homo sapiens) (UniProt P03372); experiment: Binding affinity to ERalpha up to 10 uM
Estrogen receptor (Homo sapiens), sequence (P03372 whole entry): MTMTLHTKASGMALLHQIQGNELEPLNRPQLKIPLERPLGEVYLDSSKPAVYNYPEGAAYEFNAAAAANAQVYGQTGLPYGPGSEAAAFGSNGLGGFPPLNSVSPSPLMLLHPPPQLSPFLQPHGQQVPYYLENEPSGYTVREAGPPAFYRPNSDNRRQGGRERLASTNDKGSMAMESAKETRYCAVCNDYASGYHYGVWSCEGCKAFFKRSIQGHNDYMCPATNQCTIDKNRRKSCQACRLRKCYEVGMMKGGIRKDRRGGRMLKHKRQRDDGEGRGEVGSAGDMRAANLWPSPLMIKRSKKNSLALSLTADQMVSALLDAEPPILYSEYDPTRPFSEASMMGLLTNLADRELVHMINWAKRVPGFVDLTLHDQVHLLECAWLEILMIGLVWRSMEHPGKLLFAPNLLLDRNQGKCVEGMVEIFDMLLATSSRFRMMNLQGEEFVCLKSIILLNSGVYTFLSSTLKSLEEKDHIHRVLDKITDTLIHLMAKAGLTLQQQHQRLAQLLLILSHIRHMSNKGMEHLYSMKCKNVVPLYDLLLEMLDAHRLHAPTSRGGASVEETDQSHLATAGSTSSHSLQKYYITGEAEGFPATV

[21] = Cmax in Syrian golden hamster at 3 mg/kg, po once daily for 9 days; format: ADME, organism-based, Mesocricetus auratus; set-up: dose 3 mg/kg, route oral; conditions: in vivo
Mus musculus [22] = experiment: Antidiabetic activity in ob/ob mouse assessed as reduction in plasma glucose levels at 10 mg/kg, po once daily for 5 days relative to control; format: functional; set-up: scale not given: the % may be the effect or the level left
[23] = molecular target: Thyroid hormone receptor beta (Homo sapiens) (UniProt P10828); experiment: Activity at TRbeta receptor up to 10 uM by transactivation assay
Thyroid hormone receptor beta (Homo sapiens), sequence (P10828 whole entry): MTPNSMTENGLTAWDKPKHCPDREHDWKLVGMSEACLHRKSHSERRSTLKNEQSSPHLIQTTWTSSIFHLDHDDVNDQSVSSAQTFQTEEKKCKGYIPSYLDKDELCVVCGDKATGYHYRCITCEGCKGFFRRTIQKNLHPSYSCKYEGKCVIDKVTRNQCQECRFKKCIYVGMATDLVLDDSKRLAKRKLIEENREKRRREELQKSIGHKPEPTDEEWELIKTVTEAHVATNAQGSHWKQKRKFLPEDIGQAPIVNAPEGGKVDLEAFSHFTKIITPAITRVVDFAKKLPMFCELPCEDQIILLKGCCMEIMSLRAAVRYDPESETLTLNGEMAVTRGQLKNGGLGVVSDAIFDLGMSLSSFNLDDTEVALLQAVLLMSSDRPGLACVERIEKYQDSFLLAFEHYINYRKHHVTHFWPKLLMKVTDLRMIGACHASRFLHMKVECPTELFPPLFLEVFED

Rattus norvegicus [24] = experiment: Toxicity in Sprague-Dawley rat assessed as increase in brown adipose tissue weight at 60 mg/kg, po once daily for 14 days; format: organism-based; set-up: dose 60 mg/kg, route oral; conditions: in vivo, 336 h
Rattus norvegicus [25] = experiment: Toxicity in Sprague-Dawley rat assessed as hematocrit at 60 mg/kg, po once daily for 14 days; format: organism-based; set-up: dose 60 mg/kg, route oral; conditions: in vivo, 336 h
[26] = molecular target: Glucocorticoid receptor (Homo sapiens) (UniProt P04150); experiment: Binding affinity to GR up to 10 uM
Syrian golden hamster [27] = experiment: Antidiabetic activity in Syrian golden hamster assessed as reduction in triglyceride level at 3 mg/kg, po once daily for 9 days relative to control; format: functional, Mesocricetus auratus; set-up: scale not given: the % may be the effect or the level left
[28] = molecular target: Thyroid hormone receptor alpha (Homo sapiens) (UniProt P10827); experiment: Activity at TRalpha receptor up to 10 uM by transactivation assay
Thyroid hormone receptor alpha (Homo sapiens), sequence (P10827 whole entry): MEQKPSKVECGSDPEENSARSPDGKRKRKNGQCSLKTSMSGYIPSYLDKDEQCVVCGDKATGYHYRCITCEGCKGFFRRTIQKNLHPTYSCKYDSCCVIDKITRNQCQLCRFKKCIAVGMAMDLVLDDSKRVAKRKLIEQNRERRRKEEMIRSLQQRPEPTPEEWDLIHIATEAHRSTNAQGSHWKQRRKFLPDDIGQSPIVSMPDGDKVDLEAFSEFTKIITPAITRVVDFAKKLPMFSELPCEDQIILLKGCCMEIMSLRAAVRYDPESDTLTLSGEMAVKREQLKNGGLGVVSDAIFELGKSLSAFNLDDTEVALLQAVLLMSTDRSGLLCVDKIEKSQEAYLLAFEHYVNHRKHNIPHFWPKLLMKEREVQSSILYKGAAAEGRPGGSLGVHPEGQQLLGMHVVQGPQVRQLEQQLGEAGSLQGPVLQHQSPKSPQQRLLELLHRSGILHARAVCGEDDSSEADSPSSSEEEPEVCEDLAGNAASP

[29] = AUC in Syrian golden hamster at 3 mg/kg, po once daily for 9 days; format: ADME, organism-based, Mesocricetus auratus; set-up: dose 3 mg/kg, route oral; conditions: plasma
Rattus norvegicus [30] = experiment: Antidiabetic activity in Zucker fa/fa rat assessed as decrease in triglyceride levels at 100 mg/kg, po once daily for 7 days; format: functional, organism-based; set-up: dose 100 mg/kg
Syrian golden hamster [31] = experiment: Antidiabetic activity in Syrian golden hamster assessed as reduction in cholesterol level at 3 mg/kg, po once daily for 9 days relative to control; format: functional, Mesocricetus auratus; set-up: scale not given: the % may be the effect or the level left
[32] = AUC in C57BLKS/J-m+/+Leprdb db/db mouse at 1 mg/kg, po once daily for 11 days; format: ADME, organism-based; set-up: dose 1 mg/kg, route oral; conditions: plasma
[33] = molecular target: T2, Nuclear receptor subfamily 1 group I member 2; experiment: Activity at PXR receptor up to 10 uM by transactivation assay
Rattus norvegicus [34] = experiment: Antidiabetic activity in Zucker fa/fa rat assessed as decrease in triglyceride levels at 0.03 mg/kg, po once daily for 7 days; format: functional, organism-based; set-up: dose 0.03 mg/kg
Mus musculus [35] = experiment: Antidiabetic activity in C57BLKS/J-m+/+Leprdb db/db mouse assessed as reduction in plasma glucose levels at 1 mg/kg, po once daily for 11 days relative to control; format: functional; set-up: scale not given: the % may be the effect or the level left
Rattus norvegicus [36] = experiment: Antidiabetic activity in Zucker fa/fa rat assessed as decrease in triglyceride levels at 3 mg/kg, po once daily for 7 days; format: functional, organism-based; set-up: dose 3 mg/kg
[37] = molecular target: Oxysterols receptor LXR-beta (Homo sapiens) (UniProt P55055); experiment: Activity at LXRbeta receptor up to 10 uM by transactivation assay
[38] = AUC in C57BLKS/J-m+/+Leprdb db/db mouse at 3 mg/kg, po once daily for 11 days; format: ADME, organism-based; set-up: dose 3 mg/kg, route oral; conditions: plasma

Question: Which Activity (Syrian golden hamster [1]) does the source give for CC[C@@H](Oc1cccc(Cn2c(C)c(C(=O)c3ccc(Cl)cc3)c3ccc(OC(F)(F)F)cc32)c1)C(=O)O here?
Answer: 21.9%

Question: What about the Activity (Rattus norvegicus [2]) of the same compound?
Answer: Active

Question: And the Activity (Rattus norvegicus [3])?
Answer: Toxic

Question: And the Activity (Syrian golden hamster [4])?
Answer: 10.1%

Question: What about the Activity (Syrian golden hamster [5]) of the same compound?
Answer: 33.9%

Question: What about the EC50 [6] of the same compound?
Answer: 0.00055 µM

Question: And the AUC at 288 h [7]?
Answer: 2700 nM·h

Question: And the EC50 [8]?
Answer: 0.23 µM

Question: And the AUC [9]?
Answer: 1500 nM·h

Question: And the Activity [10]?
Answer: inactive

Question: And the IC50 (Cytochrome P450 1A2)?
Answer: 40 µM

Question: What about the IC50 (Cytochrome P450 2C19) of the same compound?
Answer: 91 µM

Question: And the Cmax [11]?
Answer: 0.07 µM

Question: What about the Activity (Mus musculus [12]) of the same compound?
Answer: 27%

Question: What about the Activity [13] of the same compound?
Answer: Not Active

Question: What about the Activity (Rattus norvegicus [14]) of the same compound?
Answer: Active

Question: What about the IC50 (Cytochrome P450 2D6) of the same compound?
Answer: 7 µM

Question: And the AUC at 288 h [15]?
Answer: 8200 nM·h

Question: And the Activity (Rattus norvegicus [16])?
Answer: Active

Question: And the IC50 (Cytochrome P450 2C9)?
Answer: 10 µM

Question: What about the Activity (Mus musculus [17]) of the same compound?
Answer: 75%

Question: And the Activity (Mus musculus [18])?
Answer: 21%

Question: And the EC50 [19]?
Answer: 0.00046 µM

Question: And the Activity [20]?
Answer: inactive

Question: And the Cmax [21]?
Answer: 0.6 µM

Question: What about the Activity (Mus musculus [22]) of the same compound?
Answer: 34%

Question: What about the Activity [23] of the same compound?
Answer: inactive

Question: What about the Activity (Rattus norvegicus [24]) of the same compound?
Answer: 32%

Question: And the Activity (Rattus norvegicus [25])?
Answer: -8%

Question: What about the Activity [26] of the same compound?
Answer: inactive

Question: What about the Activity (Syrian golden hamster [27]) of the same compound?
Answer: 56.9%

Question: What about the Activity [28] of the same compound?
Answer: inactive

Question: What about the AUC at 216 h [29] of the same compound?
Answer: 2110 nM·h

Question: And the Activity (Rattus norvegicus [30])?
Answer: Active

Question: And the Activity (Syrian golden hamster [31])?
Answer: 51.4%

Question: And the AUC at 264 h [32]?
Answer: 1900 nM·h

Question: And the Activity [33]?
Answer: Not Active

Question: What about the Activity (Rattus norvegicus [34]) of the same compound?
Answer: Active

Question: What about the Activity (Mus musculus [35]) of the same compound?
Answer: 78%

Question: And the Activity (Rattus norvegicus [36])?
Answer: Active

Question: What about the Activity [37] of the same compound?
Answer: inactive

Question: What about the AUC at 264 h [38] of the same compound?
Answer: 6400 nM·h
